Reference: publication doi:10.1101/2024.08.19.608619, “Discovery of potent SARS-CoV-2 nsp3 macrodomain inhibitors uncovers lack of translation to cellular antiviral response” (bioRxiv, 2024)
Values joined by “and” are separate entries in the source; they are usually repeats but may differ in a detail not shown here. Equal entries are not always repeated.

Columns and labels:
M3 (h) = molecular target: T1, M3 (h) (Homo sapiens, UniProt P20309); experiment: In vitro CEREP profiling, M3 (h) (antagonist radioligand); assay type: binding; conditions: test compound concentration 10 uM
T1 construct: purchased Eurofins Cerep (SafetyScreen44), recognised from the panel format
Excerpt: (§1) Supplement media-1.zip/Safety_Panel_Profile.csv, table | column: perc_inhibition

HeLa-ACE2 cells = conditions: HeLa-ACE2 cytotoxicity; for perc_max_measured: highest measured response of the dose series; for perc_min_measured: lowest measured response of the dose series
Protein binding = assay type: in vitro ADME
Excerpt: Supplement media-1.zip/Protein_Binding.csv, table | column: fu; perc_bound; perc_free; perc_recovered

CB1 (h) = molecular target: T2, CB1 (h) (Homo sapiens, UniProt P21554); experiment: In vitro CEREP profiling, CB1 (h) (agonist radioligand); assay type: binding; conditions: test compound 10 uM
T2 construct: purchased Eurofins Cerep (SafetyScreen44), recognised from the panel format
Excerpt: as §1

KV channel = experiment: In vitro CEREP profiling, KV channel (antagonist radioligand); assay type: binding; conditions: test compound concentration 10 uM
Excerpt: as §1

alpha2A (h) = molecular target: T3, alpha2A (h) (Homo sapiens, UniProt P08913); experiment: In vitro CEREP profiling, alpha2A (h) (antagonist radioligand); assay type: binding; conditions: test compound 10 uM
T3 construct: purchased Eurofins Cerep (SafetyScreen44), recognised from the panel format
T3 sequence (P08913 1-465): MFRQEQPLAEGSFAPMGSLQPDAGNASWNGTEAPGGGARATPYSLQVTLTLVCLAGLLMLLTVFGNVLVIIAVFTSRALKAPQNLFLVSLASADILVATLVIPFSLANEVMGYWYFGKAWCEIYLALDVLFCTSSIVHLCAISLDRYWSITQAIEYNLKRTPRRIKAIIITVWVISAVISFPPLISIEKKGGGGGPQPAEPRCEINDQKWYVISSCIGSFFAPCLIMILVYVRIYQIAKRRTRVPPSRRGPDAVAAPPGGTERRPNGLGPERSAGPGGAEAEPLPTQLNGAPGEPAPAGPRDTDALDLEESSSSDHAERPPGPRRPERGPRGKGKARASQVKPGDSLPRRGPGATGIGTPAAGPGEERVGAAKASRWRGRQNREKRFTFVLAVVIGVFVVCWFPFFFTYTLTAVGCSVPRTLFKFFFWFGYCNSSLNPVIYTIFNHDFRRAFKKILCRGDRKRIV
Excerpt: as §1

A2A (h) = molecular target: T4, A2A (h) (Homo sapiens, UniProt P29274); experiment: In vitro CEREP profiling, A2A (h) (agonist radioligand); assay type: binding; conditions: test compound 10 uM
T4 construct: purchased Eurofins Cerep (SafetyScreen44), recognised from the panel format
Excerpt: as §1

CYP = CYP inhibition; assay type: in vitro ADME; conditions: In vitro CYP inhibition pooled; for potency: potency class in words
Excerpt: Supplement media-1.zip/CYP_Inhibition.csv, table | column: ic50; potency

human CHRM2 (M2) = molecular target: T5, human CHRM2 (M2) (Homo sapiens, UniProt P08172); experiment: Eurofins CEREP panel, M2; assay type: binding; conditions: M2 (h) (antagonist radioligand); test compound concentration 10 uM
T5 construct: purchased Eurofins Cerep (SafetyScreen44), recognised from the panel format
T5 sequence (P08172 1-466): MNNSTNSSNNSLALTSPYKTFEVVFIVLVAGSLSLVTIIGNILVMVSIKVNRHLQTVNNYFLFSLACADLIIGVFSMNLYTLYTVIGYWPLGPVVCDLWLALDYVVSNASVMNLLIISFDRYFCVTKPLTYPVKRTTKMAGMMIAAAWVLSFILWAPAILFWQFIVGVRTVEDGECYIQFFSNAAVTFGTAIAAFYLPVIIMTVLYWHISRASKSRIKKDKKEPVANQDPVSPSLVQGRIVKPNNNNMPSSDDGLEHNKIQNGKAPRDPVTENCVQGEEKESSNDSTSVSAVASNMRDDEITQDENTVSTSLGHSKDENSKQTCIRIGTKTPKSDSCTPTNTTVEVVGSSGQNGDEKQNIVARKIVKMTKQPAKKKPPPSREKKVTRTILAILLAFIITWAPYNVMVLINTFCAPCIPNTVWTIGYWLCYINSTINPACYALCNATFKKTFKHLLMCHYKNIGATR

alpha1A (h) = molecular target: T6, alpha1A (h) (Homo sapiens, UniProt P35348); experiment: In vitro CEREP profiling, alpha1A (h) (antagonist radioligand); assay type: binding; conditions: test compound 10 uM
T6 construct: purchased Eurofins Cerep (SafetyScreen44), recognised from the panel format
T6 sequence (P35348 1-466): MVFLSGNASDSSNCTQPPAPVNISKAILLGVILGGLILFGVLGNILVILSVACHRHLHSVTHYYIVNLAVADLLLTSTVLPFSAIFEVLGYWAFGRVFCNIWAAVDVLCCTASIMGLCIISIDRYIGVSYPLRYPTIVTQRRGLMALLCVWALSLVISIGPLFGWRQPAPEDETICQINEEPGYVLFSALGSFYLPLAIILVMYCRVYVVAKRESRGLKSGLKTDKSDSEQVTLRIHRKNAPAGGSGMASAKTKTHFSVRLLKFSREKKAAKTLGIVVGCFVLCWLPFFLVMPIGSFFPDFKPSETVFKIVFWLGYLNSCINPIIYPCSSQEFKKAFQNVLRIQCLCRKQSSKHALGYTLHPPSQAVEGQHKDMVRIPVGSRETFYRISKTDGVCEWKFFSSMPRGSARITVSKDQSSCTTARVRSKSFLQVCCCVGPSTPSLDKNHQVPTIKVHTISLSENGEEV
Excerpt: as §1

[1] = In vitro dog plasma protein binding
[2] = In vitro fetal calf serum protein binding
[3] = In vitro human plasma protein binding
[4] = In vitro mouse plasma protein binding
[5] = In vitro rat plasma protein binding

T1 sequence (P20309 whole entry): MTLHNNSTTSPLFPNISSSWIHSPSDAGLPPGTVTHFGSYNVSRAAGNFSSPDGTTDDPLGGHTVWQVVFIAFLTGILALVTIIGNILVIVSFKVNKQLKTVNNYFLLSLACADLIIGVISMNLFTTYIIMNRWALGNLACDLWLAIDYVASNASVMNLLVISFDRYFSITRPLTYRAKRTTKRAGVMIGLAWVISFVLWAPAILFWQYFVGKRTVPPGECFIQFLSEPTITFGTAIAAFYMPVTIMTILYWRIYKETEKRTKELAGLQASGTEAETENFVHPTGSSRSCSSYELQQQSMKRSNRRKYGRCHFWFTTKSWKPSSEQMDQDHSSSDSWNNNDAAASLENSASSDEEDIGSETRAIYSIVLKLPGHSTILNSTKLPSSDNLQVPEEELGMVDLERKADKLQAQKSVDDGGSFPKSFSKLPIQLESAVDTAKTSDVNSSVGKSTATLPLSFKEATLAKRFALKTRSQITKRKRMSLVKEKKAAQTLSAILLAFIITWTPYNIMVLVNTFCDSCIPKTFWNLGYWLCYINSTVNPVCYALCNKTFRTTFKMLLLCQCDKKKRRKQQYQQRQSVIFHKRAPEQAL
T2 sequence (P21554 whole entry): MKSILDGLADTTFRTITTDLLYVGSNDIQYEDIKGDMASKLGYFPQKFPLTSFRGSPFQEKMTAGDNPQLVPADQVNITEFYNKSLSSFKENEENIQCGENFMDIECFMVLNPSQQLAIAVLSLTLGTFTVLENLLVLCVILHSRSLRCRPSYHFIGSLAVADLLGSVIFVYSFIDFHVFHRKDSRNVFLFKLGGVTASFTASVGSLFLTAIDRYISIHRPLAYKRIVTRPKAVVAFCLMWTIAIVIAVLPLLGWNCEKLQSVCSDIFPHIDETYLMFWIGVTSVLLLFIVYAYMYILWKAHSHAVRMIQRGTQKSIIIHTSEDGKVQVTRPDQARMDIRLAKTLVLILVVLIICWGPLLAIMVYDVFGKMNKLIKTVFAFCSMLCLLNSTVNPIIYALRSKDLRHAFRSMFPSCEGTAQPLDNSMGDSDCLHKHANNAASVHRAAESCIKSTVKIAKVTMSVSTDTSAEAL
T4 sequence (P29274 whole entry): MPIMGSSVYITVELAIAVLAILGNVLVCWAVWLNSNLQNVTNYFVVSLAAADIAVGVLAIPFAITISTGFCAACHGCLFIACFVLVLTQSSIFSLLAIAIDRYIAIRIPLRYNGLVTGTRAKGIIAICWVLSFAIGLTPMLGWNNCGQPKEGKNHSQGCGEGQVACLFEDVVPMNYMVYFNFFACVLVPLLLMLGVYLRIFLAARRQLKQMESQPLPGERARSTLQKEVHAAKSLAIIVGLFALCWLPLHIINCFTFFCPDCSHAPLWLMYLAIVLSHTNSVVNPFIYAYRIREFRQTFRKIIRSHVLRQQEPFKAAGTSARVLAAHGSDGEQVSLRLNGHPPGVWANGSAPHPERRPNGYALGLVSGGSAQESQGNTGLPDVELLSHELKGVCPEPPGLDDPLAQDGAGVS

## Cn1ncc(-c2cc3c(N[C@@H](c4ccc5c(n4)OCCO5)C(C)(C)C)ncnc3[nH]2)c1C#N [ASAP-0011221]
M3 (h)
  perc_inhibition (% inhibition of the binding of a ligand specific for each target): -8%
HeLa-ACE2 cells
  CC50: > 20 µM
  cc10: > 10.0 µM and > 20.0 µM
  perc_max_measured: 97.859% and 124.489%
  perc_min_measured: 51.321% and 74.575%
Protein binding; [1]
  fu: 0.012
  perc_bound: 98.8%
  perc_free: 1.2%
  perc_recovered: 99.93%
Protein binding; [2]
  fu: 0.021
  perc_bound: 97.9%
  perc_free: 2.13%
  perc_recovered: 99.13%
Protein binding; [3]
  fu: 0.006
  perc_bound: 99.4%
  perc_free: 0.571%
  perc_recovered: 99.19%
Protein binding; [4]
  fu: 0.011
  perc_bound: 98.9%
  perc_free: 1.06%
  perc_recovered: 98.18%
Protein binding; [5]
  fu: 0.018
  perc_bound: 98.2%
  perc_free: 1.83%
  perc_recovered: 90.47%
CB1 (h)
  perc_inhibition (% inhibition of the binding of a ligand specific for each target): 33%
KV channel
  perc_inhibition (% inhibition of the binding of a ligand specific for each target): 5%
alpha2A (h)
  perc_inhibition (% inhibition of the binding of a ligand specific for each target): 11%
A2A (h)
  perc_inhibition (% inhibition of the binding of a ligand specific for each target): 52%
CYP; isoform 1A2
  IC50: > 50 µM
  potency: weak
CYP; isoform 2C9
  IC50: 42.6 µM
  potency: weak
CYP; isoform 2C19
  IC50: > 50 µM
  potency: weak
CYP; isoform 2D6
  IC50: 20.5 µM
  potency: weak
CYP; isoform 3A4
  IC50: 8.79 µM
  potency: moderate
Human CHRM2 (M2)
  perc_inhibition (% inhibition of the binding of a ligand specific for each target): 25%
alpha1A (h)
  perc_inhibition (% inhibition of the binding of a ligand specific for each target): 54%

## C[C@H](C(=O)O)[C@@H](NC(=O)c1ncnc2[nH]ccc12)c1ccc(Br)cc1 [ASAP-0014722]
M3 (h)
  perc_inhibition (% inhibition of the binding of a ligand specific for each target): -9%
HeLa-ACE2 cells
  CC50: > 20 µM
  cc10: > 20.0 µM
  perc_max_measured: 102.029% and 107.127%
  perc_min_measured: 80.657% and 84.357%
Protein binding; [1]
  fu: 0.039
  perc_bound: 96.1%
  perc_free: 3.94%
  perc_recovered: 103.6%
Protein binding; [2]
  fu: 0.043
  perc_bound: 95.7%
  perc_free: 4.3%
  perc_recovered: 106.3%
Protein binding; [3]
  fu: 0.026
  perc_bound: 97.4%
  perc_free: 2.6%
  perc_recovered: 99.4%
Protein binding; [4]
  fu: 0.111
  perc_bound: 88.9%
  perc_free: 11.1%
  perc_recovered: 94.29%
Protein binding; [5]
  fu: 0.044
  perc_bound: 95.6%
  perc_free: 4.41%
  perc_recovered: 93.34%
CB1 (h)
  perc_inhibition (% inhibition of the binding of a ligand specific for each target): -11%
KV channel
  perc_inhibition (% inhibition of the binding of a ligand specific for each target): 0%
alpha2A (h)
  perc_inhibition (% inhibition of the binding of a ligand specific for each target): 3%
A2A (h)
  perc_inhibition (% inhibition of the binding of a ligand specific for each target): -14%
CYP; isoform 1A2
  IC50: > 50 µM
  potency: weak
CYP; isoform 2C9
  IC50: 5.14 µM
  potency: moderate
CYP; isoform 2C19
  IC50: > 50 µM
  potency: weak
CYP; isoform 2D6
  IC50: > 50 µM
  potency: weak
CYP; isoform 3A4
  IC50: > 50 µM
  potency: weak
Human CHRM2 (M2)
  perc_inhibition (% inhibition of the binding of a ligand specific for each target): -4%
alpha1A (h)
  perc_inhibition (% inhibition of the binding of a ligand specific for each target): -8%
